Values after ≈ are worked out from the molar mass of the structure shown. Read-outs that look alike come from different tables or passages of the source.
Tests used:
Type in all cases: cell-based
[1] = tested on: spores of ATCC BBA1870 strain; test: Inhibition of germination of C. difficile spores (MIC), strain ATCC BBA1870; settings: Clostridioides difficile, ATCCBBA1870STRAIN, 1 h, read-out: MIC (minimum concentration that completely inhibits spore germination)
How it was run: (§1)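 Germination was followed as the drop in OD580 over 60 min at 37° C in BHIS after adding sodium taurocholate to spores premixed with compound. Spores were first heat-activated (65° C, 30 min) and washed free of self-germinating spores. The inhibition rate was calculated against germinant and non-germinant controls.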

[2] = tested on: spores of ATCC 43255 strain; test: Inhibition of germination of C. difficile spores (MIC), strain ATCC 43255; settings: Clostridioides difficile, ATCC43255, 1 h, read-out: MIC (minimum concentration that completely inhibits spore germination)
How it was run: as §1

[3] = tested on: spores of ATCC 630 strain; test: Inhibition of germination of C. difficile spores (MIC), strain ATCC 630; settings: Clostridioides difficile, ATCC630, 1 h, read-out: MIC (minimum concentration that completely inhibits spore germination)
How it was run: as §1

[4] = strain 1870, sodium taurocholate as germinant, BHIS medium, 37° C., OD580 for 60 min
[5] = strain 43255, sodium taurocholate as germinant, BHIS medium, 37° C., OD580 for 60 min
[6] = strain 630, sodium taurocholate as germinant, BHIS medium, 37° C., OD580 for 60 min

| SMILES | MIC [1, 4] | MIC [2, 5] | MIC [3, 6] | MIC [1] | MIC [2] | MIC [3] |
| --- | --- | --- | --- | --- | --- | --- |
| C[C@H](CC(=O)NC(c1ccccc1)c1ccccc1)[C@H]1CC[C@H]2[C@@H]3C(=O)C[C@@H]4CC(=O)CC[C@]4(C)[C@H]3CC[C@]12C [Compound I-61] | 128 µM (≈ 69.1 µg/mL) | 128 µM (≈ 69.1 µg/mL) | 128 µM (≈ 69.1 µg/mL) | – | – | – |
| CC(NC(=O)C[C@@H](C)[C@H]1CC[C@H]2[C@@H]3C(=O)C[C@@H]4CC(=O)CC[C@]4(C)[C@H]3CC[C@]12C)c1ccc(S(=O)(=O)O)s1 (stereo partly drawn) [Compound I-34] | 64 µM (≈ 36.1 µg/mL) | 64 µM (≈ 36.1 µg/mL) | 64 µM (≈ 36.1 µg/mL) | – | – | – |
| CC(C)C(NC(=O)C[C@@H](C)[C@H]1CC[C@H]2[C@@H]3[C@H](O)C[C@@H]4CC(=O)CC[C@]4(C)[C@H]3CC[C@]12C)c1ccc(Br)s1 (stereo partly drawn) [Compound I-98] | 0.5 µM (≈ 0.296 µg/mL) | 0.5 µM (≈ 0.296 µg/mL) | 0.5 µM (≈ 0.296 µg/mL) | – | – | – |
| CC[C@@H](NC(=O)C[C@@H](C)[C@H]1CC[C@H]2[C@@H]3[C@H](O)CC4=CC(=O)C=C[C@]4(C)[C@H]3CC[C@]12C)c1ccc(Br)s1 [Compound I-159-2] | 0.5 µM (≈ 0.287 µg/mL) | 0.5 µM (≈ 0.287 µg/mL) | 0.5 µM (≈ 0.287 µg/mL) | – | – | – |
| C[C@H](CC(=O)NCc1cccs1)[C@H]1CC[C@H]2[C@@H]3[C@H](O)C[C@@H]4C[C@H](O)CC[C@]4(C)[C@H]3C[C@H](O)[C@]12C [Compound I-18] | 32 µM (≈ 15.7 µg/mL) | 8 µM (≈ 3.92 µg/mL) | 8 µM (≈ 3.92 µg/mL) | – | – | – |
| CC[C@@H](NC(=O)C[C@@H](C)[C@H]1CC[C@H]2[C@@H]3C(=O)C[C@@H]4CC(=O)CC[C@]4(C)[C@H]3CC[C@]12C)c1ccc(C(=O)CCCCCCC(=O)O)s1 [Compound I-205] | 128 µM (≈ 83.7 µg/mL) | 128 µM (≈ 83.7 µg/mL) | 128 µM (≈ 83.7 µg/mL) | – | – | – |
| CCCCCC(NC(=O)C[C@@H](C)[C@H]1CC[C@H]2[C@@H]3C(=O)C[C@@H]4CC(=O)CC[C@]4(C)[C@H]3CC[C@]12C)c1cccs1 (stereo partly drawn) [Compound I-44] | 256 µM (≈ 138 µg/mL) | > 256 µM | > 256 µM | – | – | – |
| CCCCCCCC(=O)O[C@@H]1C[C@@H]2CC(=O)CC[C@]2(C)[C@H]2CC[C@]3(C)[C@@H]([C@H](C)CC(=O)N[C@@H](c4ccc(Br)s4)C(C)C)CC[C@H]3[C@H]12 [Compound I-186] | 256 µM (≈ 184 µg/mL) | 256 µM (≈ 184 µg/mL) | 256 µM (≈ 184 µg/mL) | – | – | – |
| C[C@H](CC(=O)NC(c1cccs1)C1CCCC1)[C@H]1CC[C@H]2[C@@H]3C(=O)C[C@@H]4CC(=O)CC[C@]4(C)[C@H]3CC[C@]12C (stereo partly drawn) [Compound I-53] | 32 µM (≈ 17.2 µg/mL) | 32 µM (≈ 17.2 µg/mL) | 32 µM (≈ 17.2 µg/mL) | – | – | – |
| CC(C)[C@H](NC(=O)C[C@@H](C)[C@H]1CC[C@H]2[C@@H]3[C@H](O)C[C@@H]4CC(=O)CC[C@]4(C)[C@H]3CC[C@]12C)c1ccc(Cl)s1 [Compound I-96] | 4 µM (≈ 2.19 µg/mL) | 4 µM (≈ 2.19 µg/mL) | 4 µM (≈ 2.19 µg/mL) | – | – | – |
| CC(C)C(NC(=O)C[C@@H](C)[C@H]1CC[C@H]2[C@@H]3[C@H](O)C[C@@H]4CC(=O)CC[C@]4(C)[C@H]3CC[C@]12C)c1cccs1 (stereo partly drawn) [Compound I-134] | 2 µM (≈ 1.03 µg/mL) | 2 µM (≈ 1.03 µg/mL) | 2 µM (≈ 1.03 µg/mL) | – | – | – |
| CC(=O)O[C@@H]1CC2=CC(=O)CC[C@]2(C)[C@H]2CC[C@]3(C)[C@@H]([C@H](C)CC(=O)N[C@@H](c4ccc(Br)s4)C(C)C)CC[C@H]3[C@H]12 [I-156 -1] | 0.5 µM (≈ 0.316 µg/mL) | 0.5 µM (≈ 0.316 µg/mL) | 0.5 µM (≈ 0.316 µg/mL) | – | – | – |
| C[C@H](CC(=O)NC(C(=O)O)c1ccccc1)[C@H]1CC[C@H]2[C@@H]3C(=O)C[C@@H]4CC(=O)CC[C@]4(C)[C@H]3CC[C@]12C (stereo partly drawn) [Compound I-63] | > 256 µM | 256 µM (≈ 130 µg/mL) | 256 µM (≈ 130 µg/mL) | – | – | – |
| CC(C)[C@@H](NC(=O)C[C@@H](C)[C@H]1CC[C@H]2[C@@H]3C(=O)C[C@@H]4CC(=O)CC[C@]4(C)[C@H]3CC[C@]12C)c1ccc(Cl)s1 [Compound I-77] | 0.25 µM (≈ 0.137 µg/mL) | 0.25 µM (≈ 0.137 µg/mL) | 0.25 µM (≈ 0.137 µg/mL) | – | – | – |
| CC(C)[C@@H](NC(=O)C[C@@H](C)[C@H]1CC[C@H]2[C@@H]3[C@H](O)C[C@@H]4CC(=O)CC[C@]4(C)[C@H]3CC[C@]12C)c1cccs1 [Compound I-136] | 1 µM (≈ 0.514 µg/mL) | 1 µM (≈ 0.514 µg/mL) | 1 µM (≈ 0.514 µg/mL) | – | – | – |
| CC[C@@H](NC(=O)C[C@@H](C)[C@H]1CC[C@H]2[C@@H]3[C@H](O)[C@H](O)[C@@H]4C[C@H](O)CC[C@]4(C)[C@H]3CC[C@]12C)c1ccc(Cl)s1 [Compound I-117] | 8 µM (≈ 4.42 µg/mL) | 8 µM (≈ 4.42 µg/mL) | 4 µM (≈ 2.21 µg/mL) | – | – | – |
| CC(C)[C@@H](NC(=O)C[C@@H](C)[C@H]1CC[C@H]2[C@@H]3C(=O)CC4=CC(=O)C=C[C@]4(C)[C@H]3CC[C@]12C)c1ccc(Cl)s1 [Compound I-154] | 1 µM (≈ 0.542 µg/mL) | 0.5 µM (≈ 0.271 µg/mL) | 0.5 µM (≈ 0.271 µg/mL) | – | – | – |
| CC[C@@H](NC(=O)C[C@@H](C)[C@H]1CC[C@H]2[C@@H]3[C@H](OC(C)=O)C[C@@H]4CC(=O)CC[C@]4(C)[C@H]3CC[C@]12C)c1ccc(Cl)s1 [Compound I-175] | 1 µM (≈ 0.576 µg/mL) | 1 µM (≈ 0.576 µg/mL) | 0.5 µM (≈ 0.288 µg/mL) | – | – | – |
| CC(NC(=O)C[C@@H](C)[C@H]1CC[C@H]2[C@@H]3[C@H](O)[C@H](O)[C@@H]4C[C@H](O)CC[C@]4(C)[C@H]3CC[C@]12C)c1cccs1 (stereo partly drawn) [Compound I-22] | 8 µM (≈ 4.03 µg/mL) | 8 µM (≈ 4.03 µg/mL) | 8 µM (≈ 4.03 µg/mL) | – | – | – |
| C[C@H](CC(=O)NCc1cccs1)[C@H]1CC[C@H]2[C@@H]3[C@@H](O)C[C@@H]4C[C@H](O)CC[C@]4(C)[C@H]3CC[C@]12C [Compound I-12] | 128 µM (≈ 60.6 µg/mL) | 256 µM (≈ 121 µg/mL) | 256 µM (≈ 121 µg/mL) | – | – | – |
| CC(=O)c1ccc([C@H](NC(=O)C[C@@H](C)[C@H]2CC[C@H]3[C@@H]4C(=O)C[C@@H]5CC(=O)CC[C@]5(C)[C@H]4CC[C@]23C)C(C)C)s1 [Compound I-202] | 32 µM (≈ 17.7 µg/mL) | 32 µM (≈ 17.7 µg/mL) | 32 µM (≈ 17.7 µg/mL) | – | – | – |
| CC(C)[C@@H](NC(=O)C[C@@H](C)[C@H]1CC[C@H]2[C@@H]3C(=O)C[C@@H]4CC(=O)CC[C@]4(C)[C@H]3CC[C@]12C)c1cccs1 [Compound I-66] | 0.25 µM (≈ 0.128 µg/mL) | 0.25 µM (≈ 0.128 µg/mL) | 0.25 µM (≈ 0.128 µg/mL) | – | – | – |
| CC[C@@H](NC(=O)C[C@@H](C)[C@H]1CC[C@H]2[C@@H]3[C@H](O)C[C@@H]4CC(=O)CC[C@]4(C)[C@H]3CC[C@]12C)c1ccc(Br)s1 [Compound I-91] | 0.25 µM (≈ 0.145 µg/mL) | 0.25 µM (≈ 0.145 µg/mL) | 0.25 µM (≈ 0.145 µg/mL) | – | – | – |
| CCCCCCCCCCCCCC(NC(=O)C[C@@H](C)[C@H]1CC[C@H]2[C@@H]3C(=O)C[C@@H]4CC(=O)CC[C@]4(C)[C@H]3CC[C@]12C)c1cccs1 (stereo partly drawn) [Compound I-47] | > 256 µM | > 256 µM | > 256 µM | – | – | – |
| CC(C)[C@@H](NC(=O)C[C@@H](C)[C@H]1CC[C@H]2[C@@H]3CC(=O)[C@@H]4CC(=O)CC[C@]4(C)[C@H]3CC[C@]12C)c1ccc(Cl)s1 [Compound I-131] | 2 µM (≈ 1.09 µg/mL) | 2 µM (≈ 1.09 µg/mL) | 2 µM (≈ 1.09 µg/mL) | – | – | – |
| CC[C@@H](NC(=O)C[C@@H](C)[C@H]1CC[C@H]2[C@@H]3[C@H](O)[C@H](O)[C@@H]4CC(=O)CC[C@]4(C)[C@H]3CC[C@]12C)c1ccc(Br)s1 [Compound I-124] | 64 µM (≈ 38.1 µg/mL) | 64 µM (≈ 38.1 µg/mL) | 64 µM (≈ 38.1 µg/mL) | – | – | – |
| CC(C)[C@@H](NC(=O)C[C@@H](C)[C@H]1CC[C@H]2[C@@H]3C(=O)C[C@@H]4CC(=O)CC[C@]4(C)[C@H]3CC[C@]12C)c1ccc(N(C)C)s1 [Compound I-204] | – | – | – | 32 µM (≈ 17.8 µg/mL) | 32 µM (≈ 17.8 µg/mL) | 32 µM (≈ 17.8 µg/mL) |
| C[C@H](CC(=O)NC(Cc1ccccc1)c1ccccc1)[C@H]1CC[C@H]2[C@@H]3C(=O)C[C@@H]4CC(=O)CC[C@]4(C)[C@H]3CC[C@]12C (stereo partly drawn) [Compound I-62] | – | – | – | 256 µM (≈ 142 µg/mL) | 128 µM (≈ 70.9 µg/mL) | 128 µM (≈ 70.9 µg/mL) |
| CC[C@@H](NC(=O)C[C@@H](C)[C@H]1CC[C@H]2[C@@H]3[C@H](O)C[C@@H]4CC(=O)CC[C@]4(C)[C@H]3C[C@H](O)[C@]12C)c1ccc(Br)s1 [Compound I-165] | 64 µM (≈ 38.1 µg/mL) | 64 µM (≈ 38.1 µg/mL) | 32 µM (≈ 19 µg/mL) | – | – | – |
| CC[C@@H](NC(=O)C[C@@H](C)[C@H]1CC[C@H]2[C@@H]3C(=O)C[C@@H]4CC(=O)CC[C@]4(C)[C@H]3CC[C@]12C)c1ccc(C=O)s1 [Compound I-199] | 16 µM (≈ 8.41 µg/mL) | 16 µM (≈ 8.41 µg/mL) | 16 µM (≈ 8.41 µg/mL) | – | – | – |

— US20230135729A1, “COMPOUND WITH ANTI-SPORE ACTIVITY AND PHARMACEUTICAL COMPOSITION THEREOF” (priority 2020, published 2023)
